# Laboratory results reported in publication PMC7961786, “Magic Peptide: Unique Properties of the LRR11 Peptide in the Activation of Leukotriene Synthesis in Human Neutrophils” (International Journal of Molecular Sciences, 2021).
# Legend:
# [1] = tested on: human neutrophils, 5-LOX metabolites; assay: 5-LOX metabolite production in neutrophils without bacteria or other phagocytosis targets; format: cell-based; details: in the absence of bacteria or other targets for phagocytosis
# Procedure: Human neutrophils synthesize 5-LOX metabolites (leukotriene B4 (LTB4) and its isomers, ω-OH-LTB4 and 5-HETE), during phagocytosis of opsonized zymosan or S. typhimurium bacteria. In the absence of bacteria or other targets for phagocytosis, treatment of neutrophils with ODNs listed in Table 1 or with LRR11, produce less than 1 ng of LTB4, its isomers, ω-OH-LTB4, and 5-HETE per 10^7 PMNLs. The potential of the LRR11 peptide and ODNs to regulate the synthesis of products catalyzed by 5-LOX was assessed after cell incubation with ODNs (+/−LRR11) followed by the addition of opsonized S. typhimurium bacteria (OS). To test whether neutrophil incubation with ODNs, LRR11 and bacteria affects cell viability, we assessed phosphatidylserine externalization and the integrity of neutrophil membranes after 20 min with ODNs (+/−LRR11) followed by 15 min with OS at 37 °C. The data obtained by flow cytometry using double Alexa Fluor-conjugated Annexin V/propidium iodide staining indicate that in our experiment the percentage of viable cells exceeds 96% (Figure S1).
# Human neutrophils were isolated from freshly taken citrate-anticoagulated peripheral blood from healthy individuals using standard methods. Leukocyte-rich plasma was prepared by sedimentation of erythrocytes with 3% dextran T-500 at room temperature. […]
# human neutrophils = assay: Intracellular free Ca^2+ in neutrophils (Fluo-3); format: cell-based; details: Figure 9
# Procedure: Figure 9 Effects of ODNs and LRR11 on intracellular concentration of free Ca^2+ in neutrophils. Fluo-3 AM-loaded neutrophils (1 × 10^6/mL) were cultured in fibrinogen-coated flat bottom plates in HBSS/HEPES medium supplemented or not with 1 µM LRR11, without additives or in the presence of 1 µM ODNs, at 37 °C, 5% CO2. Fluo-3 fluorescence signals (ex. 485 nm, em. 538 nm) were monitored with 2-min intervals. (A) Values represent the means ± SEM of fluorescence intensity increments in 7 min after the addition of stimulus (n = 3). * p < 0.05, ** p < 0.01, **** p < 0.001 compared with the control, as indicated by two-way ANOVA followed by Sidak’s multiple comparison test. (B) Representative blank corrected Fluo-3 fluorescence kinetic curves for control (square, black solid line), LRR11 (circle, black dotted line), A-CpG (square, red solid line) and LRR11_A-CpG mix (circle, red dotted line).
# Intracellular Ca^2+ ions were detected by staining with Fluo-3, which is known to dramatically increase fluorescence after binding of calcium ions, was used. According to the manufacturer’s protocol, human neutrophils were incubated with 5 μM Fluo-3 AM ester (Thermo Fisher Scientific, Waltham, MA, USA) for 60 min at room temperature, followed by washing in PBS. Cells were then seeded in fibrinogen-coated 96-well plates (1 × 10^6/mL of HBSS/HEPES) and incubated at 37 °C in 5% CO2. Changes in fluorescence intensity upon excitation at 485 nm and emission at 538 nm were monitored at CLARIOstar fluorescence microplate reader for at least 60 min after stimulus injection, followed by data analysis using MARS Data Analysis Software, version 3.30 (both hardware and software are from BMG Labtech, Ortenberg, Germany).
sequence,measurement,setting,value
"QLRKLNLSFNYQKRVSFAHLSLAPSFGSLV [LRR11, 30 amino acid peptide from leucine-rich repeat of TLR9]","LTB4, its isomers, ω-OH-LTB4, and 5-HETE produced",[1],less than 1 ng per 10^7 PMNLs
same,effect of LRR11 on calcium ion influx with/without ODNs,human neutrophils; 1 µM LRR11 +/- 1 µM ODNs,noticeable only in the absence of ODNs
same,calcium influx,"human neutrophils; 1 µM LRR11 or 1 µM ODNs, Fluo-3, 37 °C, n = 3",potentiates calcium influx
same,time course of cytoplasmic Ca^2+ concentration,human neutrophils; 1 µM LRR11 or 1 µM ODNs,ensures long-term maintenance of an increased cytoplasmic Ca^2+ concentration
